Results as given in US7319000B1, “Compositions and methods for eliciting immune or anti-infective responses” (priority 1992, dated 2008).
Where two headings read alike, the source gives them in different places. Ends that are not written are not given here.

Columns and labels:
[1] = tested on: spleen cells (CTL response to R15K); experiment: CTL activity of spleen cells after a single id footpad injection (FIG. 4)
[2] = tested on: HIV-1 IIIB infection of human cells; format: cell-based
[3] = tested on: HIV-1 infection of primary human T cells; experiment: HIV-1 infection of primary human T cells, reverse transcriptase assay; format: cell-based; details: peptide at 1 μg/ml; IIIB strain; RT activity after 9 days; FIG. 8
3A9 target cells (H-2k) = format: in vivo, Balb/c mice; details: effector cells: No Treatment
BALB/c mice = experiment: Anti-peptide antibody response (ELISA) in BALB/c mice immunized with peptide multimers; format: in vivo
[4] = tested on: PLN cells from B6C3F1 mice; experiment: In vitro proliferation (3H-TdR) of PLN cells from immunized B6C3 F1 mice; format: in vivo; parameters: key to In Vitro Proliferation of PLN Cells from B6C3F1, Analogous Peptide / In Vitro Proliferation of PLN Cells from B6C3F1, GP 160: −: cpm values are corrected and categorized according to unrelated antigen response in vitro.; •: Not determined.; +: cpm values are corrected and categorized according to unrelated antigen response in vitro.; ++: cpm values are corrected and categorized according to unrelated antigen response in vitro.; +++: cpm values are corrected and categorized according to unrelated antigen response in vitro.; ++++: cpm values are corrected and categorized according to unrelated antigen response in vitro
[5] = tested on: PLN cells from A SW × Balb/c F1 mice; experiment: In vitro proliferation (3H-TdR) of PLN cells from immunized A.SW x BALB/c F1 mice; format: in vivo, A.SWXBALB/C F1 mice; parameters: key: −: cpm values are corrected and categorized according to unrelated antigen response in vitro.; •: Not determined.; +: cpm values are corrected and categorized according to unrelated antigen response in vitro.; ++: cpm values are corrected and categorized according to unrelated antigen response in vitro.; +++: cpm values are corrected and categorized according to unrelated antigen response in vitro.; ++++: cpm values are corrected and categorized according to unrelated antigen response in vitro
[6] = tested on: PBMCs of immunized rhesus monkeys; experiment: PBMC proliferation in rhesus monkeys immunized with a mixture of eight synthetic peptides; format: in vivo; parameters: key to T-cell Proliferation Responses: —: no detectable response; 1+: poor response; 2+: good response; 3+: better response; 4+: best response; 6+: best response; details: for T-cell Proliferation Responses: PBMC response to the individual peptide or gp160
Description: In the present studies, three rhesus monkeys (#7, #23 and #283C) were immunized subcutaneously with 1 ml (0.1 ml/site) of a mixture of eight synthetic peptides (300·g of each peptide in sterile water) emulsified in complete Freund's adjuvant at 1:1 ratio. […] At 3 and 7 weeks after the primary immunization, two booster injections of the peptide mixture (150·g of each peptide in sterile water) emulsified in incomplete Freund's adjuvant were given to each monkey. Monkey #7 was terminated after […], for health reasons unrelated to the study, while the remaining two monkeys (#283C and #23) received one additional booster injection at 25 weeks.
At two week intervals following the first immunization of each animal, 15 ml of whole heparinized blood was collected by venous puncture. The peripheral blood mononuclear cells (PBMC) were separated by standard ficoll-hypaque centrifugation and employed in proliferation assays. The PBMCs were monitored every two weeks for a period of 32 weeks for proliferative responses against individual peptides and recombinant gp160.

[7] = disulfide (di-Cys) polymeric form
[8] = in vitro antigen: analogous peptide

Molecule: CC[C@H](C)[C@H](NC(=O)[C@@H](NC(=O)[C@@H](NC(=O)[C@H](Cc1ccccc1)NC(=O)[C@H](C)NC(=O)[C@H](CCCNC(=N)N)NC(=O)CNC(=O)[C@@H]1CCCN1C(=O)CNC(=O)[C@H](CCCNC(=N)N)NC(=O)[C@H](CCC(N)=O)NC(=O)[C@@H](NC(=O)[C@@H](N)CCCNC(=N)N)[C@@H](C)CC)C(C)C)[C@@H](C)O)C(=O)NCC(=O)N[C@@H](CCCCN)C(=O)O [Peptide R15K]
- effect of anti-CD4 MAbs plus complement, or complement alone, on CTL cytotoxicity (P815 target cells (H-2d); effectors from mice immunized with monomeric peptide, FIG. 3A): no significant effect
- effect of anti-CD8 MAbs and rabbit complement on CTL cytotoxicity (P815 target cells (H-2d); effectors from mice immunized with monomeric peptide, peptide treated or env expressing targets, FIG. 3A): abolished the cytotoxicity

Molecule: CRIKQIINMWQGVGKAMYA [Peptide C19A]
- CTL-inducing activity of helper T-cell peptide injected alone [1]: lacked CTL-inducing activity

Molecule: GIAIGPGRTLYAREK [Peptide D27, V3 loop peptide, strain NY-5]
- % RT INHIBITION [2]: 0%

Molecule: GIHFGPGQALYTTGI [Peptide D33, V3 loop peptide, strain MAL]
- % RT INHIBITION [2]: 0%

Molecule: HGEFAPGNYPALWSYA [Peptide B105]
- in vivo CTL response against unmodified free synthetic peptide (P815 target cells (H-2d); same immunization protocol as Example 5): successfully generated

Molecule: NNTRKSITKGPGRVIYATGQIIGD [Peptide D26, V3 loop peptide, strain RF]
- % RT INHIBITION [2]: 72.2%

Molecule: RAFVTIGK [Peptide R8K]
- inhibition of HIV-1 infection of primary human T cells [3]: 66%

Molecule: RIHIGPGARFLTTKN [Peptide D39, V3 loop peptide, strain MN(Y-L)]
- % RT INHIBITION [2]: 73.8%

Molecule: RIHIGPGRAFFTTKN [Peptide D40, V3 loop peptide, strain MN(Y-F)]
- % RT INHIBITION [2]: 62.8%

Molecule: RIHIGPGRAFYTTKN [Peptide D24, V3 loop peptide, strain MN]
- % RT INHIBITION [2]: 22.1%

Molecule: RTPTGLGQSLYTTRS [Peptide D38, V3 loop peptide, strain ELI]
- % RT INHIBITION [2]: 33.7%

Molecule: RVTLGPGRVWYTTGE [Peptide D29, V3 loop peptide, strain CDC4]
- % RT INHIBITION [2]: 0%

Molecule: SIHIGPGRAFYATGD [Peptide D30, V3 loop peptide, strain SC]
- % RT INHIBITION [2]: 54.3%

Molecule: SIRIGPGKVFTAKGG [Peptide D31, V3 loop peptide, strain Z3]
- % RT INHIBITION [2]: 0%

Molecule: SISIGPGRAFFATTD [Peptide D34, V3 loop peptide, strain Z321]
- % RT INHIBITION [2]: 0%

Molecule: SITKGPGRVIYATGQ [Peptide D28, V3 loop peptide, strain RF]
- % RT INHIBITION [2]: 0%

Molecule: SIYIGPGRAFHTTGR [Peptide D32, V3 loop peptide, strain SF2]
- % RT INHIBITION [2]: 0%

Molecule: SLSIGPGRAPRTREI [Peptide D25, V3 loop peptide, strain WMJ-3]
- % RT INHIBITION [2]: 42.4%

Molecule: STPIGLGQALYTTRG [Peptide D35, V3 loop peptide, strain Z6]
- % RT INHIBITION [2]: 30.3%

Molecule: STPIGLGQALYTTRI [Peptide D37, V3 loop peptide, strain JY1]
- % RT INHIBITION [2]: 0%

Molecule: TYQRTRALVTG [Peptide B106, free synthetic peptide from Influenza virus nucleoprotein (aa 147-158)]
- % Specific Lysis (3A9 target cells (H-2k); target 3A9 (MHC-mis-matched, H-2k), E:T 80:1): 0%
- % Specific Lysis (3A9 target cells (H-2k); target 3A9 (MHC-mis-matched, H-2k), E:T 160:1): 0%
- % Specific Lysis (3A9 target cells (H-2k); target 3A9 + B106, E:T 20:1): 0%
- % Specific Lysis (3A9 target cells (H-2k); target 3A9 + B106, E:T 40:1): 0%
- % Specific Lysis (3A9 target cells (H-2k); target 3A9 + B106, E:T 80:1): 0%
- % Specific Lysis (3A9 target cells (H-2k); target 3A9 + B106, E:T 160:1): 0%

Molecule: YLRDQQLLGIWGC [Peptide 61, gp160 aa 586-598]
- Antipeptide Antibody Reactivity to Analogous Peptide (BALB/c mice; antibody raised in Balb/C mice, ELISA end point): −
- anti-peptide antibody production (in words) (BALB/c mice; [7]): do not stimulate anti-peptide antibody production
- anti-peptide antibody response (in words) (BALB/c mice; high molecular weight forms of the peptides): very low to negligible amounts of anti-peptide antibodies
- T cell response against the corresponding peptide and native HIV envelope protein gp160 (in words) [4, 7]: strong T cell response
- In Vitro Proliferation of PLN Cells from B6C3F1, GP 160 ([4]; in vitro antigen: GP 160): +
- In Vitro Proliferation of PLN Cells from B6C3F1, Analogous Peptide [4, 8]: ++
- In Vitro Proliferation of PLN Cells from A SW × Balb/c F1, GP 160 ([5]; in vitro antigen: GP 160): ++
- In Vitro Proliferation of PLN Cells from A SW × Balb/c F1, Analogous Peptide [5, 8]: ++
- T-cell Proliferation Responses ([6]; Rhesus Monkey #7): —
- T-cell Proliferation Responses ([6]; Rhesus Monkey #23): 3+
- T-cell Proliferation Responses ([6]; Rhesus Monkey #283C): 2+
- PBMC proliferative responses (in words) ([6]; three rhesus monkeys, monitored for 32 weeks): Two of the three rhesus monkey-derived PBMC preparations also showed good proliferative responses

Molecule: YNKRKRIHIGPGRAFYTTKNNIGC [Peptide D23, V3 loop peptide, strain MN]
- % RT INHIBITION [2]: 98.8%
